Reference: patent US12264148B2, “Ivosidenib forms and pharmaceutical compositions” (Servier Pharmaceuticals LLC, priority 2018, dated 2025)
Converted amounts (≈) assume the structure as drawn. Each block holds one compound with its values, some of them ahead of it.

What was measured:
[1] = tested on: bacterial reverse mutation; details: Registered substances; cited from earlier work
[2] = tested on: bacterial reverse mutation; test: In vitro bacterial reverse mutation assay (Ames)
mIDH1-driven gliomas = details: some model systems; Rohle et al. Science 2013; cited from earlier work
mutant IDH2 (mIDH2) = details: tool compound; Rohle et al. Science 2013; cited from earlier work
mutant IDH1 (mIDH1) = details: cited from earlier work
[3] = Dissolution of 250 mg tablets spiked with crystalline form, Medium B (pH 6.8, 0.4% SDS); type: physicochemical; details: 250 mg tablets vs target (nominal) formulation
Text: (§1) In order to assess the impact of crystalline polymorphic forms on dissolution profiles, variant tablets were manufactured with SDI spiked with drug substance of two different crystalline polymorphs: Form B, and Form L, which forms are as described above. As used herein, the term “spiked” or “spiking” is used consistently with usage in the field of pharmaceutical manufacturing, namely the introduction of a particular form to the crystallization solution to encourage nucleation and growth. These forms were selected because it was determined that if an SDI should crystallize, these two forms would be most likely to be present. However, it is noted that the SDI can be reliably made in completely amorphous form, with no detectable crystalline form present even under stressed conditions.
250 mg tables were manufactured by adding 50 mg (20% w/w) of crystalline Form L or Form B with the ivosidenib SDI (therefore, amorphous SDI was present at 80% w/w as a measure of the active ingredient.)
Similar dissolution studies were undertaken with Medium B (pH 6.8, 0.4% SDS). Similarity factors (f2) were calculated to assess the dissolution profiles, compared to a target formulation. The similarity factors are included in Table 21.

[4] = Dissolution of 250 mg tablets spiked with crystalline form, Medium A (pH 6.8, 0.6% SDS); type: physicochemical; details: 250 mg tablets vs target (nominal) formulation
Text: as §1
250 mg tables were manufactured by adding 50 mg (20% w/w) of crystalline Form L or Form B with the ivosidenib SDI (therefore, amorphous SDI was present at 80% w/w as a measure of the active ingredient.) […]
Similar dissolution studies were undertaken with Medium B (pH 6.8, 0.4% SDS). Similarity factors (f2) were calculated to assess the dissolution profiles, compared to a target formulation. […]

[5] = Solubility in 5:95 v/v iPrOAc:heptane slurry; type: physicochemical; details: remained a thick slurry
[6] = Solubility of solid state forms in methanol; type: physicochemical
[7] = Competitive slurries of Form L, Form M and Form N; type: physicochemical; details: Form L, N in dichloromethane, heptane, tBME, acetone, ambient or 35/50 °C
Method: The temperature was increased to 70° C. to dissolve material. Anti-solvent addition (60 mL heptane) at 60 mL/h was carried out at 70° C. Once the anti-solvent addition was complete, the reaction was cooled to 60° C. and seeded with 0.63 g of Form B ivosidenib, which was stirred at 60° C. for 4 h then cooled to 15° C. over 10 h. An anti-solvent addition was started (308 mL heptane) at 75 mL/h, 15° C., 200 rpm. When the anti-solvent addition finished, the mixture was stirred at 15° C. for 2 h then isolated solid through filtration using a Buchner funnel (120 mm Ø) and washed with 246 mL of iPrOAc:heptane (1:1 v/v). In isopropyl acetate:heptane 5:95 v/v, Form N was retained, while in isopropyl acetate:heptane 20:80 v/v, a mixture of Form B and Form N was obtained.
The following procedure was followed for competitive slurry trials of the Form L, Form M, and Form N polymorphs: Approximately 50 or 75 mg of each different solid form was weighed out into 1.5 mL screw-cap vials. […]
Aliquots (100 μL or 25 μL) of appropriate solvent added as required to obtain a mobile slurry which was then stirred at either ambient (ca. 23° C.) or elevated (35 or 50° C.) temperature for ca. 21 or 68.5 h (see Table 4 for details). Solids were isolated solid by centrifugation and analyzed by XRPD. […]

[8] = potential impurities of ivosidenib drug substance; cited from earlier work
[9] = Approximate solubility of ivosidenib freebase in 20 solvent systems at RT; type: physicochemical
Method: Approximate solubility of ivosidenib freebase was determined in 20 solvent systems at RT. In the experiment, ˜2 mg of ivosidenib was added into a 3-mL glass vial, followed by the addition of corresponding solvent. The solvent was added by 100 μL step wise until the solution was visually clear or a total volume of 2 mL was reached. This solubility information was used to select solvents for the polymorph screening.

mutant IDH1 proteins = details: U.S. Publication No. 2013/0190249 A1; cited from earlier work

SMILES: Clc1ccccc1C(Cl)Cl [1-chloro-2-(dichloromethyl)benzene]
Ames result reported by ECHA [1]: Ames-negative

SMILES: ClCc1ccccc1Cl [2-chlorobenzyl chloride]
Ames result reported by ECHA [1]: Ames-negative

SMILES: Fc1cncc(/N=C/c2ccccc2Cl)c1 [(E)-1-(2-chlorophenyl)-N-(5-fluoropyridin-3-yl) methanimine]
Ames test result [2]: negative

SMILES: Cc1ccccc1C(C(=O)NC1CCCCC1)N(C(=O)Cn1ccnc1C)c1cccc(F)c1 (stereo not drawn) [AGI-5198]
growth of mIDH1-driven gliomas (mIDH1-driven gliomas): repress growth | inhibition of mutant IDH2 (mutant IDH2 (mIDH2)): not mutant IDH2 (mIDH2) | inhibition of mutant IDH1 (mutant IDH1 (mIDH1); tool compound, Rohle et al. Science 2013): inhibit mutant IDH1 (mIDH1)

Similarity factor (f2) result for dissolution medium B [3]: 43.1 | Similarity factor (f2) result for dissolution medium A [4]: 26.0
SMILES: N#Cc1ccnc(N2C(=O)CC[C@H]2C(=O)N(c2cncc(F)c2)[C@H](C(=O)NC2CC(F)(F)C2)c2ccccc2Cl)c1 [Form B]

Similarity factor (f2) result for dissolution medium B [3]: 48.5 | Similarity factor (f2) result for dissolution medium A [4]: 28.9
SMILES: N#Cc1ccnc(N2C(=O)CC[C@H]2C(=O)N(c2cncc(F)c2)[C@H](C(=O)NC2CC(F)(F)C2)c2ccccc2Cl)c1 [Form L]

solubility in 5:95 v/v iPrOAc:heptane [5]: poorly soluble | solubility in methanol [6]: 109 mg/mL (≈ 187 mM) | solubility ([6]; organic solvent or mixture, thermodynamic from solid, compared with ~70 mg/mL AG-120 in the SDI spray solution, read-out: solubility): ~110 mg/mL (≈ 189 mM)
SMILES: N#Cc1ccnc(N2C(=O)CC[C@H]2C(=O)N(c2cncc(F)c2)[C@H](C(=O)NC2CC(F)(F)C2)c2ccccc2Cl)c1 [Form M]

solubility in 5:95 v/v iPrOAc:heptane [5]: poorly soluble | most stable anhydrous form in competitive slurries [7]: stable anhydrous form | solubility ([6]; compared with ~70 mg/mL AG-120 in the SDI spray solution): ~110 mg/mL (≈ 189 mM) | solubility ([6]; organic solvent or mixture, thermodynamic from solid, read-out: solubility in methanol): 113 mg/mL (≈ 194 mM)
SMILES: N#Cc1ccnc(N2C(=O)CC[C@H]2C(=O)N(c2cncc(F)c2)[C@H](C(=O)NC2CC(F)(F)C2)c2ccccc2Cl)c1 [Form N]

SMILES: O=Cc1ccccc1 [benzaldehyde]
mutagenicity according to literature [8]: known mutagens

SMILES: c1ccccc1 [benzene]
mutagenicity according to literature [8]: known mutagens

SMILES: ClCc1ccccc1 [benzyl chloride]
mutagenicity according to literature [8]: known mutagens

Solubility (mg/mL) ([9]; Acetic acid, RT): 40.4~20.2 mg/mL | Solubility (mg/mL) ([9]; DMSO, RT): 46.6~23.2 mg/mL | Solubility (mg/mL) ([9]; IPA, RT): 38.8~19.4 mg/mL | Solubility (mg/mL) ([9]; IPAC, RT): 40.2~20.1 mg/mL | Solubility (mg/mL) ([9]; MIBK, RT): 18.6~12.0 mg/mL | Solubility (mg/mL) ([9]; Toluene, RT): 18.6~12.4 mg/mL | solubility ([9]; organic solvent or mixture, thermodynamic from solid, 1,4-Dioxane, RT): > 41.6 mg/mL | solubility ([9]; organic solvent or mixture, thermodynamic from solid, 2-MeTHF, RT): > 41.4 mg/mL | solubility ([9]; organic solvent or mixture, thermodynamic from solid, ACN, RT): > 36.8 mg/mL | solubility ([9]; organic solvent or mixture, thermodynamic from solid, Acetone, RT): > 36.4 mg/mL | solubility ([9]; organic solvent or mixture, thermodynamic from solid, CHCl3, RT): > 38.2 mg/mL | solubility ([9]; organic solvent or mixture, thermodynamic from solid, DMA, RT): > 24.5 mg/mL | solubility ([9]; organic solvent or mixture, thermodynamic from solid, EtOAc, RT): > 41.8 mg/mL | solubility ([9]; organic solvent or mixture, thermodynamic from solid, EtOH, RT): > 39.4 mg/mL | solubility ([9]; organic solvent or mixture, thermodynamic from solid, Heptane, RT): < 0.95 mg/mL | solubility ([9]; organic solvent or mixture, thermodynamic from solid, MTBE, RT): > 37.8 mg/mL | solubility ([9]; organic solvent or mixture, thermodynamic from solid, MeOH, RT): > 47.6 mg/mL | solubility ([9]; organic solvent or mixture, thermodynamic from solid, NMP, RT): > 42 mg/mL | solubility ([9]; organic solvent or mixture, thermodynamic from solid, THF, RT): > 39 mg/mL | solubility ([9]; water, thermodynamic from solid, H2O, RT): < 1.26 mg/mL
SMILES: N#Cc1ccnc(N2C(=O)CC[C@H]2C(=O)N(c2cncc(F)c2)[C@H](C(=O)NC2CC(F)(F)C2)c2ccccc2Cl)c1 [ivosidenib, (S)—N—((S)-1-(2-Chlorophenyl)-2-(3,3-difluorocyclobutylamino)-2-oxoethyl)-1-(4-cyanopyridin-2-yl)-N-(5-fluoropyridin-3-yl)-5-oxopyrrolidine-2-carboxamide]
inhibition of mutant IDH1 proteins in cellular assays (mutant IDH1 proteins): inhibitor | inhibition of mutant IDH1 proteins in biochemical assays (mutant IDH1 (mIDH1); U.S. Publication No. 2013/0190249 A1): inhibitor
